The values that follow come from patent publication US20130164814A1, “CONTROL OF ENZYMES IN THE PRODUCTION OF PULP” (KEMIRA OYJ, priority 2010, published 2013).

Structures are written as SMILES.

The test system of data set [1] is commercial catalase enzyme. The data set can be described thus: Peroxide decomposition in pure water-peroxide-catalase system (titration against time). Conditions: 100 mg/L SPC. In kind it is biochemical. The method, then:
(§1) Sodium percarbonate (SPC product E) was tested in a pure distilled water system containing peroxide (210 mg/L), commercial catalase enzyme (1 μL/L) and NaOH to adjust the pH to 9.7 corresponding to the alkaline conditions in a recycled fiber plant. The size of SPC particles comprising NaCO3 coated with Na2SO4 was between 6 and 900 micrometers with maximum 1% >1.6 mm and maximum 2% <0.15 mm. Peroxide decomposition was measured by titration against time. Higher residual peroxide level was obtained with SPC than without any catalase control additive with water-catalase-peroxide system at pH 9.7. Catalase destroyed the 210 mg/I of peroxide very rapidly (FIG. 1, black square). Addition of 100 mg/L of SPC was able to retain the residual peroxide concentration at markedly higher level (triangle). After some initial peroxide degradation, the peroxide level stabilized to ˜80 mg/L. It is known that SPC brings peroxide in the system; this was measured to be 30 mg/L (triangle dotted line). […] Probably catalase enzyme managed to degrade a part of the added peroxide before it was inactivated.

The subject of data set [2] is natural catalase. Briefly: Peroxide concentration in 3% recovered paper pulp with catalase-containing process water. Conditions: for Measured H2O2: 3% pulp, dose SPC 6.7 kg/t or H2O2 2.0 kg/t, + 7 kg/t H2O2 at 0 min. It counts as biochemical, bacteria. The method, then: The effect of SPC product A was studied with a system consisting of recycled fiber pulp and process water with natural catalase. Pulp for the experiment was produced at a recycled fiber pilot plant pulper. Old magazines and old newspapers (OMG/ONP 50/50) were shredded and repulped using process water from a European recycled fiber plant. in the pilot pulper at 19% consistency for 20 minutes with alkaline soap chemistry without peroxide (NaOH 10 kg/t (100%), water glass 15 kg/t (product), soap 5 kg/t). The pulp was stored in freezer until used. Process water from the recycled fiber pilot plant was used in the experiments for diluting the pulp into 3%.
6.7 kg/t of SPC A was added to the pulp and stirred for 5 minutes. After that, 7 kg/t of 100% peroxide was added (at 0 min in FIG. 2 and Table 3) and the concentration of peroxide in the pulp filtrate was measured against time. The SPC addition brought into the system slightly below 2.0 kg peroxide /ton. Therefore, 2.0 kg of peroxide/t representing a reference sample was added to the pulp and stirred for 5 minutes. Again, after that 7 kg/t of 100% peroxide was added (at 0 min in FIG. 2 and Table 3) and the concentration of peroxide was determined by titration against time from the pulp filtrate.

The nature of data set [3]: Effect of SPC on the peroxide titration (SPC without catalase and without added H2O2). In kind it is physicochemical. Conditions: 100 mg/L SPC. The method, then:
as §1

As for `O=C([O-])[O-].O=C([O-])[O-].OO.OO.OO.[Na+].[Na+].[Na+].[Na+]` [SPC product E, sodium percarbonate], the “Measured benefit: peroxide higher than what only came from SPC” value in data set [1] (water-catalase-peroxide system) is 50 mg/L.

Regarding `O=C([O-])[O-].O=C([O-])[O-].OO.OO.OO.[Na+].[Na+].[Na+].[Na+]` [SPC, sodium percarbonate], in data set [1] (210 mg/L peroxide, catalase 1 μL/L, pH 9.7), the “Stabilized peroxide level after initial degradation” value is ~80 mg/L. In addition, the “Peroxide decomposition compared with an equal amount of added peroxide” value in data set [2] (3% pulp made of recovered paper) was “Less peroxide decomposed”. Moreover, the “Measured H2O2” value came to 8.7 kg/t in data set [2] (0 min), 7.9 kg/t in data set [2] (10 min), 7.4 kg/t in data set [2] (30 min) and 7.0 kg/t in data set [2] (60 min). In addition, in data set [3], the “Peroxide brought into the system by SPC” value was 30 mg/L.

On to `OO` [H2O2, hydrogen peroxide, reference compound], for which the “Measured H2O2” value in data set [2] (0 min) is recorded as 8.7 kg/t; in data set [2] (10 min), 6.4 kg/t; in data set [2] (30 min) it was 5.8 kg/t; in data set [2] (60 min), 5.2 kg/t.
